Experimental data: patent US8232278B2 (Gilead Sciences, Inc., priority 2005, dated 2012)

How the values were obtained:
[1] = test system: HCV replicon; assay: Anti-HCV assay / replicon assay (EC50, luciferase read-out); type: cell-based, hepatitis C virus (HCV); conditions: for CC50/EC50: CC50/EC50 ratio (selectivity index); for EC50: Hepatitis C virus, 72 h, human hepatoma Huh-7 cell line harbouring a HCV replicon, 3 days, luciferase luminescence, read-out: EC50
Method: (§1) The anti-HCV activity of the pyrido[3,2-d]pyrimidine derivatives of this invention was tested in a human hepatoma Huh-7 cell line harbouring a HCV replicon. The assay comprised the following steps:
(§2) Step 1: Compound Preparation and Serial Dilution
(§3) • 1. for water soluble pyrido[3,2-d]pyrimidine derivatives, a volume of 500 μL of solution in cell media (DMEM, 10% FBS, P/S, L-Glutamine) was prepared with a concentration being twice the concentration of the starting final serial dilution concentration. […] The rest of the plate, columns 2-12, was filled with 100 μL of cell media. The plate was then placed on a Precision 2000 Workstation to start the serial dilution. Compounds were diluted three times each step from column 1 to column 10. Column 11 was used as a blank control (no compound added). • 2. for pyrido[3,2-d]pyrimidine derivatives requiring DMSO to dissolve, serial dilution is performed in 50% DMSO in a 384-well plate. A solution containing a compound at 100-fold concentration of the starting final serial dilution concentration was prepared in 50% DMSO and added to the pre-specified wells in column 1 of a polypropylene 384-well plate. The plate was then placed on a Precision 2000 Workstation to start the serial dilution. After the serial dilution, a volume of 2 μL of the solution was transferred from the 384-well plate to a 96-well cell culture plate containing 100 μL of cell media on a Biomek FX Workstation. The DMSO concentration in the final assay condition was 0.5% after cells are added to the plate and the total volume in each well is brought to 200 μL. Step 2: to each well of the serial dilution plate prepared above, 100 μL of cell media containing 6000 suspended Huh-7 HCV replicon cells was added with a Multidrop workstation. The plates were incubated for 3 days at 37° C. with 5% CO2. Step 3: Detection: • a) for the EC50 assay, the media in a 96-well cell culture plate was aspirated with a Biotek EL405 plate-washer. A volume of 200 μL of a solution containing a 1:1 mixture of cell-lysis buffer (Promega, Luciferase Cell Culture Lysis 5× Reagent, cat. #E1531) and luciferase substrate solution (Promega, Luciferase Assay, cat. #E4550) was added to each well of the plate with Multidrop.
(§4) Results in table 7 are expressed by the following data: • the 50% effective concentration (EC50), i.e. the concentration that protects 50% of the cell monolayer from virus-induced cythopathic effect, and • the 50% cytostatic concentration (CC50), i.e. the concentration that results in 50% inhibition of cell growth. Table 7 further indicates the nature of substituents being present in positions 2, 4 and 6 of the pyrido[3,2-d]pyrimidine derivatives of the invention.

[2] = CC50 assay in Huh-7 HCV replicon cells (CellTiter-Glo); type: cell-based, human; conditions: human, 50% cytostatic concentration
Method: as §1, §2, §3, §4

| SMILES | CC50/EC50 [1] | EC50 [1] [nM] | CC50 at 3 days [2] [nM] |
| --- | --- | --- | --- |
| Cc1cccc(NC(=O)N2CCN(c3nc(N)nc4ccc(-c5ccc6c(c5)OCO6)nc34)CC2)c1 [Example 190, 2-amino-4-[N-(3-methyl-phenyl-carbamoyl)-piperazin-1-yl]-6-(3,4-methylenedioxyphenyl)-pyrido[3,2-d]pyrimidine] | 51 | 12 | 610 |
| COc1ccc(-c2ccc3nc(N)nc(N4CCCN(C(=O)Nc5cccc(C)c5)CC4)c3n2)cc1OC [Example 241, 2-amino-4-[(N-3-methylphenylcarbamoyl)-homopiperazin-1-yl]-6-(3,4-dimethoxyphenyl)-pyrido[3,2-d]pyrimidine] | 218 | 11 | 2400 |
| COc1ccc(-c2ccc3nc(N)nc(NC4CCN(C(=O)OC(C)(C)C)CC4)c3n2)cc1OC [Example 246, 2-amino-4-[(1-Boc-piperidin-4-yl)amino]-6-(3,4-dimethoxyphenyl)-pyrido[3,2-d]pyrimidine] | 70 | 22 | 1500 |
| COc1ccc(-c2ccc3nc(N)nc(NC4CCCN(C(=O)OC(C)(C)C)C4)c3n2)cc1OC (stereo not drawn) [Example 247, 2-amino-4-[(1-Boc-piperidin-3-yl)amino]-6-(3,4-dimethoxyphenyl)-pyrido[3,2-d]pyrimidine] | 238 | 22 | 5200 |
| COc1ccc(-c2ccc3nc(N)nc(NC4CCCN(C(=O)Nc5cccc(C)c5)C4)c3n2)cc1OC (stereo not drawn) [Example 254, 2-amino-4-[(3-methylphenylcarbamoylpiperidin-3-yl)amino)-6-(3,4-dimethoxyphenyl]-pyrido[3,2-d]pyrimidine] | 147 | 50 | 7300 |
| COc1ccc(-c2ccc3nc(N)nc(N4CCCC(C(=O)NCC(C)C)C4)c3n2)cc1OC (stereo not drawn) [Example 258, 2-amino-4-[(3-carboxylic acid isobutylamide)-piperidin-1-yl]-6-(3,4-dimethoxyphenyl)-pyrido[3,2-d]pyrimidine] | 56 | 74 | 4200 |
| COc1ccc(-c2ccc3nc(N)nc(N4CCN(CC(=O)NCCc5ccccc5)CC4)c3n2)cc1OC [Example 260, 2-amino-4-[4-(N-2-phenylethylacetamid-2-yl)piperazin-1-yl]-6-(3,4-dimethoxyphenyl)-pyrido[3,2-d]pyrimidine] | 73 | 36 | 2600 |
| COc1ccc(-c2ccc3nc(N)nc(NCCC(=O)N4CCN(C(C)=O)CC4)c3n2)cc1OC [Example 262, 2-amino-4-[3-(4-acetylpiperazin-1-yl)-propan-3-one-1-yl-amino]-6-(3,4-dimethoxyphenyl)-pyrido[3,2-d]pyrimidine] | 261 | 96 | 25100 |
| COc1ccc(-c2ccc3nc(N)nc(N4CCN(CC(=O)N5CCCC5)CC4)c3n2)cc1OC [Example 263, 2-amino-4-(N-pyrrolidinyl-acetamid-2-yl-piperazin-1-yl)-6-(3,4-dimethoxyphenyl)pyrido[3,2-d]pyrimidine] | 102 | 28 | 2900 |
| COc1ccc(-c2ccc3nc(N)nc(N4CCN(CC(=O)N5CCOCC5)CC4)c3n2)cc1OC [Example 265, 2-amino-4-[N-(piperazino)-acetyl-morpholino]-6-(3,4-dimethoxyphenyl)-pyrido[3,2-d]pyrimidine] | 84 | 31 | 2600 |
| CCOc1nc(N)nc2ccc(-c3ccccc3F)nc12 [Example 279, 2-amino-4-ethoxy-6-(o-fluorophenyl)-pyrido[3,2-d]pyrimidine] | 54 | 690 | 37500 |
| CCOc1nc(N)nc2ccc(-c3cccc(F)c3)nc12 [Example 280, 2-amino-4-ethoxy-6-(m-fluorophenyl)-pyrido[3,2-d]-pyrimidine] | 125 | 300 | 37500 |
| CCCOc1nc(N)nc2ccc(-c3ccc(F)cc3)nc12 [Example 283, 2-amino-4-n-propoxy-6-(p-fluorophenyl)-pyrido[3,2-d]pyrimidine] | 221 | 95 | 21000 |
| CC(=O)Nc1nc(OC(C)C)c2nc(-c3ccc(F)cc3)ccc2n1 [Example 285, 2-acetamido-4-isopropoxy-6-(p-fluorophenyl)-pyrido[3,2-d]pyrimidine] | 492 | 51 | 25100 |
| CCCCOc1nc(N)nc2ccc(-c3ccc(F)cc3)nc12 [Example 290, 2-amino-4-n-butoxy-6-(p-fluorophenyl)-pyrido[3,2-d]pyrimidine] | 63 | 340 | 21300 |
| CC(C)COc1nc(N)nc2ccc(-c3ccc(F)cc3)nc12 [Example 293, 2-amino-4-isobutoxy-6-(p-fluorophenyl)-pyrido[3,2-d]pyrimidine] | 68 | 370 | 25100 |
| CCC(C)Oc1nc(N)nc2ccc(-c3ccc(F)cc3)nc12 (stereo not drawn) [Example 296, 2-amino-4-sec. butoxy-6-(p-fluorophenyl)-pyrido[3,2-d]pyrimidine] | 67 | 560 | 37500 |
| CCCCCOc1nc(N)nc2ccc(-c3cccc(F)c3)nc12 [Example 298, 2-amino-4-n-pentyloxy-6-(m-fluorophenyl)-pyrido[3,2-d]pyrimidine] | 77 | 365 | 28000 |
| Nc1nc(OCC2CC2)c2nc(-c3ccc(F)cc3)ccc2n1 [Example 326, 2-amino-4-(cyclopropylmethyloxy)-6-(4-fluorophenyl)pyrido[3,2-d]pyrimidine] | 254 | 99 | 25100 |
| Nc1nc(OCC(F)(F)F)c2nc(-c3ccc(F)cc3)ccc2n1 [Example 351, 2-amino-4-(trifluoroethoxy)-6-(4-fluorophenyl)-pyrido[3,2-d]pyrimidine] | 132 | 190 | 25100 |
| CC(=O)Nc1ccc(-c2ccc3nc(N)nc(OC(C)C)c3n2)cc1 [Example 355, 2-amino-4-(isopropoxy)-6-(p-acetamidophenyl)-pyrido(3,2-d)pyrimidine] | 120 | 210 | 25100 |
| CC(=O)Nc1ccc(-c2ccc3nc(N)nc(OCC4CC4)c3n2)cc1 [Example 356, 2-amino-4-(cyclopropylmethyloxy)-6-(p-acetamidophenyl)-pyrido(3,2-d)pyrimidine] | 87 | 290 | 25100 |
| Cc1cccc(OCC(=O)N2CCN(c3nc(N)nc4ccc(-c5ccc(F)cc5)nc34)CC2)c1 [Example 370, 2-amino-4-[4-(3-methylphenoxy-acetyl)piperazin-1-yl]-6-(4-fluorophenyl)-pyrido[3,2-d]pyrimidine] | 65 | 52 | 3400 |
| Nc1nc(N2CCN(C(=O)COc3cccc(Cl)c3)CC2)c2nc(-c3ccc(F)cc3)ccc2n1 [Example 371, 2-amino-4-[4-(3-chlorophenoxy-acetyl)piperazin-1-yl]-6-(4-fluorophenyl)-pyrido[3,2-d]pyrimidine] | 837 | 30 | 25100 |
